Data published in PubChem BioAssay AID330 (DTP/NCI, 2004).
Where “and” joins values, the source holds several entries; their conditions need not be identical. Equal values may be shown once. Inconclusive results and toxic doses are left out.

System: P388 leukemia ip, CD2F1 mice, survival T/C
Experiment: NCI In Vivo Anticancer Drug Screen. Data for tumor model P388 Leukemia (intraperitoneal) in CD2F1 (CDF1) mice
Conditions: endpoint: median survival time, higher = longer survival
Procedure, shortened: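 Mice carrying the transplanted tumor received test compound or vehicle. Survival was recorded in each group, and the value is the treated-group measurement divided by that of the vehicle-treated control group.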

[1] = dose: 50.0 mg/kg/injection, schedule: Q01DX005 (ip), vehicle: Klucel (hydroxypropylcellulose) (HPC)
[2] = dose: 100.0 mg/kg/injection, schedule: Q01DX005 (ip), vehicle: Klucel (hydroxypropylcellulose) (HPC)
[3] = dose: 50.0 mg/kg/injection, schedule: Q01DX009 (ip), vehicle: saline with Tween-80
[4] = dose: 100.0 mg/kg/injection, schedule: Q01DX009 (ip), vehicle: saline with Tween-80
[5] = dose: 200.0 mg/kg/injection, schedule: Q01DX009 (ip), vehicle: saline with Tween-80
[6] = dose: 100.0 mg/kg/injection, schedule: Q04DX002 (ip), vehicle: saline with Tween-80
[7] = dose: 200.0 mg/kg/injection, schedule: Q04DX002 (ip), vehicle: saline with Tween-80

C=C(Br)C(=NC(C)(C)C)Nc1ccccc1Cl
T/C (dose: 6.25 mg/kg/injection, schedule: Q01DX005 (ip), vehicle: Klucel (hydroxypropylcellulose) (HPC)): 98 % of control
T/C (dose: 12.5 mg/kg/injection, schedule: Q01DX005 (ip), vehicle: Klucel (hydroxypropylcellulose) (HPC)): 109 % of control
T/C (dose: 25.0 mg/kg/injection, schedule: Q01DX005 (ip), vehicle: Klucel (hydroxypropylcellulose) (HPC)): 111 % of control and 120 % of control and 118 % of control
T/C [1]: 118 % of control
T/C [2]: 110 % of control

O=NNc1nc(-c2ccccn2)nc2ccccc12
T/C (dose: 3.12 mg/kg/injection, schedule: Q01DX009 (ip), vehicle: DMSO): 109 % of control
T/C (dose: 6.25 mg/kg/injection, schedule: Q01DX009 (ip), vehicle: DMSO): 94 % of control
T/C (dose: 12.5 mg/kg/injection, schedule: Q01DX009 (ip), vehicle: DMSO): 105 % of control
T/C (dose: 25.0 mg/kg/injection, schedule: Q01DX009 (ip), vehicle: DMSO): 102 % of control

COC(=O)c1ccccc1N=NN(C)CC1OC2OC(C)(C)OC2C1OC (configuration not stated)
T/C (dose: 100.0 mg/kg/injection, schedule: Q01DX001 (ip), vehicle: saline with Tween-80): 99 % of control
T/C (dose: 200.0 mg/kg/injection, schedule: Q01DX001 (ip), vehicle: saline with Tween-80): 99 % of control
T/C (dose: 400.0 mg/kg/injection, schedule: Q01DX001 (ip), vehicle: saline with Tween-80): 97 % of control

C#CC1(NC(=O)c2ccccc2C(=O)Nc2cccc(C(F)(F)F)c2)CCCCC1
T/C [3]: 97 % of control
T/C [4]: 89 % of control
T/C [5]: 89 % of control

CNP1(NC)=N[P@@](NC)(N2CC2)=NP(NC)(N2CC2)=N1 (some centres not stated)
T/C (dose: 1.87 mg/kg/injection, schedule: Q01DX005 (ip), vehicle: saline): 102 % of control
T/C (dose: 7.5 mg/kg/injection, schedule: Q01DX005 (ip), vehicle: saline): 158 % of control and 185 % of control
T/C (dose: 15.0 mg/kg/injection, schedule: Q01DX005 (ip), vehicle: saline): 171 % of control and 227 % of control

COc1ccc(C2c3cc4c(cc3OC3(N5CCCC5)CCCC23)OCO4)c(OC)c1 (configuration not stated)
T/C (dose: 60.0 mg/kg/injection, schedule: Q01DX005 (ip), vehicle: Klucel (hydroxypropylcellulose) (HPC)): 99 % of control
T/C (dose: 120.0 mg/kg/injection, schedule: Q01DX005 (ip), vehicle: Klucel (hydroxypropylcellulose) (HPC)): 95 % of control
T/C (dose: 240.0 mg/kg/injection, schedule: Q01DX005 (ip), vehicle: Klucel (hydroxypropylcellulose) (HPC)): 96 % of control

CCOc1ccc(-n2c(=O)c(N=Nc3ccc(C)cc3)c(O)n(-c3ccc(Br)cc3)c2=S)cc1
T/C [6]: 96 % of control
T/C [7]: 94 % of control
T/C (dose: 400.0 mg/kg/injection, schedule: Q04DX002 (ip), vehicle: saline with Tween-80): 90 % of control

CCOC(=O)c1cccc([N+](=O)[O-])c1C(=O)OCCN(CC)CC
T/C [6]: 100 % of control
T/C [7]: 122 % of control

CCCC[CH2][Pb]([CH2]CCCC)([CH2]CCCC)[O]C(C)=O
T/C (dose: 0.25 mg/kg/injection, schedule: Q01DX009 (ip), vehicle: saline sonified): 104 % of control
T/C (dose: 0.5 mg/kg/injection, schedule: Q01DX009 (ip), vehicle: saline sonified): 109 % of control
T/C (dose: 1.0 mg/kg/injection, schedule: Q01DX009 (ip), vehicle: saline sonified): 104 % of control

CCOC(=O)c1ccc(OCC#N)cc1
T/C [1]: 93 % of control
T/C [2]: 102 % of control
T/C (dose: 200.0 mg/kg/injection, schedule: Q01DX005 (ip), vehicle: Klucel (hydroxypropylcellulose) (HPC)): 98 % of control

COC(=O)/C(=C\c1ccncc1)c1cccc2ccccc12
T/C (dose: 25.0 mg/kg/injection, schedule: Q01DX009 (ip), vehicle: saline with Tween-80): 101 % of control
T/C [3]: 98 % of control
T/C [4]: 104 % of control
T/C [5]: 99 % of control

Cc1cc(=O)n2c(nc3cc(Cl)ccc32)s1
T/C (dose: 50.0 mg/kg/injection, schedule: Q01DX009 (ip), vehicle: Klucel (hydroxypropylcellulose) (HPC)): 103 % of control
T/C (dose: 100.0 mg/kg/injection, schedule: Q01DX009 (ip), vehicle: Klucel (hydroxypropylcellulose) (HPC)): 95 % of control
T/C (dose: 200.0 mg/kg/injection, schedule: Q01DX009 (ip), vehicle: Klucel (hydroxypropylcellulose) (HPC)): 89 % of control

O=C(Nc1ccc(N=C=S)cc1Cl)c1ccc2ccccc2c1O
T/C (dose: 100.0 mg/kg/injection, schedule: Q04DX003 (ip), vehicle: Klucel (hydroxypropylcellulose) (HPC)): 101 % of control and 105 % of control
T/C (dose: 200.0 mg/kg/injection, schedule: Q04DX003 (ip), vehicle: Klucel (hydroxypropylcellulose) (HPC)): 100 % of control and 106 % of control
T/C (dose: 400.0 mg/kg/injection, schedule: Q04DX003 (ip), vehicle: Klucel (hydroxypropylcellulose) (HPC)): 110 % of control and 123 % of control
